Drawing on patent US5561140A, “Substituted alicyclic amine-containing macrocyclic immunomodulators” (Abbott Laboratories, priority 1995, dated 1996), this text covers IC50 for 31 molecules.

The test system of the experiment is human mixed lymphocyte reaction (MLR). Kind of experiment: human mixed lymphocyte reaction (MLR) assay of immunosuppressant activity. The experiment is classed as cell-based. The conditions noted are these: Table 1. The protocol:
The immunosuppressant activity of the compounds of the present invention was determined using the human mixed lymphocyte reaction (MLR) assay described by Kino, T. et al. in Transplantation Proceedings XIX(5):36-39, Suppl. 6 (1987), incorporated herein by reference.

A value given as a limit tells only on which side of the number the result lay.

For orientation: IC50 means the concentration at which inhibition is half-maximal. Low values mean inhibition by little substance, high ones a need for much substance. Molecule `CC[C@@H]1/C=C(\C)C[C@H](C)C[C@H](OC)[C@H]2O[C@@](O)(C(=O)C(=O)N3CCCC[C@H]3C(=O)O[C@H](/C(C)=C/[C@@H]3CCC(N4CCC[C@@H]4CO)[C@H](OC)C3)[C@H](C)[C@@H](O)CC1=O)[C@H](C)C[C@@H]2OC` (single isomer, unassigned) [Example 76] gave an IC50 of under 1000 nM. `CC[C@@H]1/C=C(\C)C[C@H](C)C[C@H](OC)[C@H]2O[C@@](O)(C(=O)C(=O)N3CCCC[C@H]3C(=O)O[C@H](/C(C)=C/[C@@H]3CCC(N4CCC[C@H]4CO)[C@H](OC)C3)[C@H](C)[C@@H](O)CC1=O)[C@H](C)C[C@@H]2OC` (single isomer, unassigned) [Example 109] came in with an IC50 of under 1000 nM. The molecule `CC[C@@H]1/C=C(\C)C[C@H](C)C[C@H](OC)[C@H]2O[C@@](O)(C(=O)C(=O)N3CCCC[C@H]3C(=O)O[C@H](/C(C)=C/[C@@H]3CCC(N4CCN(C)CC4)[C@H](OC)C3)[C@H](C)[C@@H](O)CC1=O)[C@H](C)C[C@@H]2OC` (stereo partly shown) [Example 5] yielded an IC50 of under 1000 nM. `CC[C@@H]1/C=C(\C)C[C@H](C)C[C@H](OC)[C@H]2O[C@@](O)(C(=O)C(=O)N3CCCC[C@H]3C(=O)O[C@H](/C(C)=C/[C@@H]3CCC(N4CCN(Cc5ccccc5)CC4)[C@H](OC)C3)[C@H](C)[C@@H](O)CC1=O)[C@H](C)C[C@@H]2OC` (stereo partly shown) [Example 7] displayed a half-inhibitory concentration (IC50) of under 1000 nM. Molecule `CC[C@@H]1/C=C(\C)C[C@H](C)C[C@H](OC)[C@H]2O[C@@](O)(C(=O)C(=O)N3CCCC[C@H]3C(=O)O[C@H](/C(C)=C/[C@@H]3CCC(N4CCN(c5ccccc5)CC4)[C@H](OC)C3)[C@H](C)[C@@H](O)CC1=O)[C@H](C)C[C@@H]2OC` (stereo partly shown) [Example 9] yielded a 50% inhibitory concentration (IC50) of under 1000 nM. As to `CC[C@@H]1/C=C(\C)C[C@H](C)C[C@H](OC)[C@H]2O[C@@](O)(C(=O)C(=O)N3CCCC[C@H]3C(=O)O[C@H](/C(C)=C/[C@@H]3CCC(N4CCN(C(=O)OC(C)(C)C)CC4)[C@H](OC)C3)[C@H](C)[C@@H](O)CC1=O)[C@H](C)C[C@@H]2OC` (stereo partly shown) [Example 11], the 50% inhibitory concentration (IC50) is under 1000 nM. Consider `CCC1C=C(C)CC(C)CC(OC)C2OC(O)(C(=O)C(=O)N3CCCCC3C(=O)OC(C(C)=CC3CCC(N4CCN(Cc5ccc([N+](=O)[O-])cc5)CC4)C(OC)C3)C(C)C(O)CC1=O)C(C)CC2OC` (stereo not shown) [Example 12], for which the IC50 was under 1000 nM. The same measure for `CCC1C=C(C)CC(C)CC(OC)C2OC(O)(C(=O)C(=O)N3CCCCC3C(=O)OC(C(C)=CC3CCC(N4CCN(Cc5ccc6ccccc6c5)CC4)C(OC)C3)C(C)C(O)CC1=O)C(C)CC2OC` (stereo not shown) [Example 13]: under 1000 nM; for `CC[C@@H]1/C=C(\C)C[C@H](C)C[C@H](OC)[C@H]2O[C@@](O)(C(=O)C(=O)N3CCCC[C@H]3C(=O)O[C@H](/C(C)=C/[C@@H]3CCC(N4CCCCC4)[C@H](OC)C3)[C@H](C)[C@@H](O)CC1=O)[C@H](C)C[C@@H]2OC` (stereo partly shown) [Example 14]: under 1000 nM. In turn, `CC[C@@H]1/C=C(\C)C[C@H](C)C[C@H](OC)[C@H]2O[C@@](O)(C(=O)C(=O)N3CCCC[C@H]3C(=O)O[C@H](/C(C)=C/[C@@H]3CCC(N4CCN(C=O)CC4)[C@H](OC)C3)[C@H](C)[C@@H](O)CC1=O)[C@H](C)C[C@@H]2OC` (stereo partly shown) [Example 15] came in with an IC50 of under 1000 nM. `CC[C@@H]1/C=C(\C)C[C@H](C)C[C@H](OC)[C@H]2O[C@@](O)(C(=O)C(=O)N3CCCC[C@H]3C(=O)O[C@H](/C(C)=C/[C@@H]3CCC(N4CCC5(CC4)OCCO5)[C@H](OC)C3)[C@H](C)[C@@H](O)CC1=O)[C@H](C)C[C@@H]2OC` (stereo partly shown) [Example 16]: the IC50 was under 1000 nM. On to `CC[C@@H]1/C=C(\C)C[C@H](C)C[C@H](OC)[C@H]2O[C@@](O)(C(=O)C(=O)N3CCCC[C@H]3C(=O)O[C@H](/C(C)=C/[C@@H]3CCC(N4CCN(CCO)CC4)[C@H](OC)C3)[C@H](C)[C@@H](O)CC1=O)[C@H](C)C[C@@H]2OC` (stereo partly shown) [Example 17], for which the IC50 was under 1000 nM. `CC[C@@H]1/C=C(\C)C[C@H](C)C[C@H](OC)[C@H]2O[C@@](O)(C(=O)C(=O)N3CCCC[C@H]3C(=O)O[C@H](/C(C)=C/[C@@H]3CCC(N4CCOCC4)[C@H](OC)C3)[C@H](C)[C@@H](O)CC1=O)[C@H](C)C[C@@H]2OC` (stereo partly shown) [Example 18] had an IC50 of under 1000 nM. The figure for `CC[C@@H]1/C=C(\C)C[C@H](C)C[C@H](OC)[C@H]2O[C@@](O)(C(=O)C(=O)N3CCCC[C@H]3C(=O)O[C@H](/C(C)=C/[C@@H]3CCC(N4CCN(CCOCCO)CC4)[C@H](OC)C3)[C@H](C)[C@@H](O)CC1=O)[C@H](C)C[C@@H]2OC` (stereo partly shown) [Example 19] is under 1000 nM; for `CC[C@@H]1/C=C(\C)C[C@H](C)C[C@H](OC)[C@H]2O[C@@](O)(C(=O)C(=O)N3CCCC[C@H]3C(=O)O[C@H](/C(C)=C/[C@@H]3CCC(N4CCN(c5ccccn5)CC4)[C@H](OC)C3)[C@H](C)[C@@H](O)CC1=O)[C@H](C)C[C@@H]2OC` (stereo partly shown) [Example 20] it is under 1000 nM; for `CC[C@@H]1/C=C(\C)C[C@H](C)C[C@H](OC)[C@H]2O[C@@](O)(C(=O)C(=O)N3CCCC[C@H]3C(=O)O[C@H](/C(C)=C/[C@@H]3CCC(N4CCN(c5ncccn5)CC4)[C@H](OC)C3)[C@H](C)[C@@H](O)CC1=O)[C@H](C)C[C@@H]2OC` (stereo partly shown) [Example 21] it is under 1000 nM. `CC[C@@H]1/C=C(\C)C[C@H](C)C[C@H](OC)[C@H]2O[C@@](O)(C(=O)C(=O)N3CCCC[C@H]3C(=O)O[C@H](/C(C)=C/[C@@H]3CCC(N4CCNCC4)[C@H](OC)C3)[C@H](C)[C@@H](O)CC1=O)[C@H](C)C[C@@H]2OC` (stereo partly shown) [Example 22] had an IC50 of under 1000 nM. The molecule `CC[C@@H]1/C=C(\C)C[C@H](C)C[C@H](OC)[C@H]2O[C@@](O)(C(=O)C(=O)N3CCCC[C@H]3C(=O)O[C@H](/C(C)=C/[C@@H]3CCC(N4CCN(CC(=O)N5CCCC5)CC4)[C@H](OC)C3)[C@H](C)[C@@H](O)CC1=O)[C@H](C)C[C@@H]2OC` (stereo partly shown) [Example 27] showed an IC50 of under 1000 nM. For `CC[C@@H]1/C=C(\C)C[C@H](C)C[C@H](OC)[C@H]2O[C@@](O)(C(=O)C(=O)N3CCCC[C@H]3C(=O)O[C@H](/C(C)=C/[C@@H]3CCC(N4CCN(CC(=O)N5CCOCC5)CC4)[C@H](OC)C3)[C@H](C)[C@@H](O)CC1=O)[C@H](C)C[C@@H]2OC` (stereo partly shown) [Example 28], the 50% inhibitory concentration (IC50) was under 1000 nM. As to `CC[C@@H]1/C=C(\C)C[C@H](C)C[C@H](OC)[C@H]2O[C@@](O)(C(=O)C(=O)N3CCCC[C@H]3C(=O)O[C@H](/C(C)=C/[C@@H]3CCC(N4CCN(C5CCCC5)CC4)[C@H](OC)C3)[C@H](C)[C@@H](O)CC1=O)[C@H](C)C[C@@H]2OC` (stereo partly shown) [Example 31], the IC50 is under 1000 nM. Regarding `CCC1C=C(C)CC(C)CC(OC)C2OC(O)(C(=O)C(=O)N3CCCCC3C(=O)OC(C(C)=CC3CCC(N4CCN(Cc5ccc6c(c5)OCO6)CC4)C(OC)C3)C(C)C(O)CC1=O)C(C)CC2OC` (stereo not shown) [Example 38], the IC50 is under 1000 nM.

`CC[C@@H]1/C=C(\C)C[C@H](C)C[C@H](OC)[C@H]2O[C@@](O)(C(=O)C(=O)N3CCCC[C@H]3C(=O)O[C@H](/C(C)=C/[C@@H]3CCC(N4CCN(c5ccc(C(C)=O)cc5)CC4)[C@H](OC)C3)[C@H](C)[C@@H](O)CC1=O)[C@H](C)C[C@@H]2OC` (stereo partly shown) [Example 39]: the IC50 was under 1000 nM.

For the molecule `CC[C@@H]1/C=C(\C)C[C@H](C)C[C@H](OC)[C@H]2O[C@@](O)(C(=O)C(=O)N3CCCC[C@H]3C(=O)O[C@H](/C(C)=C/[C@@H]3CCC(N4CCC(N5CCCC5)CC4)[C@H](OC)C3)[C@H](C)[C@@H](O)CC1=O)[C@H](C)C[C@@H]2OC` (stereo partly shown) [Example 44], the 50% inhibitory concentration (IC50) is under 1000 nM. `CCOC(=O)N1CCN(C2CC[C@@H](/C=C(\C)[C@H]3OC(=O)[C@@H]4CCCCN4C(=O)C(=O)[C@]4(O)O[C@H]([C@@H](OC)C[C@@H](C)C/C(C)=C/[C@@H](CC)C(=O)C[C@H](O)[C@H]3C)[C@@H](OC)C[C@H]4C)C[C@H]2OC)CC1` (stereo partly shown) [Example 58]: the IC50 is under 1000 nM. In turn, `CC[C@@H]1/C=C(\C)C[C@H](C)C[C@H](OC)[C@H]2O[C@@](O)(C(=O)C(=O)N3CCCC[C@H]3C(=O)O[C@H](/C(C)=C/[C@@H]3CCC(N4CCN(C(C)=O)CC4)[C@H](OC)C3)[C@H](C)[C@@H](O)CC1=O)[C@H](C)C[C@@H]2OC` (stereo partly shown) [Example 61] had an IC50 of under 1000 nM. `CC[C@@H]1/C=C(\C)C[C@H](C)C[C@H](OC)[C@H]2O[C@@](O)(C(=O)C(=O)N3CCCC[C@H]3C(=O)O[C@H](/C(C)=C/[C@@H]3CCC(N4CCN(CC(=O)NC(C)C)CC4)[C@H](OC)C3)[C@H](C)[C@@H](O)CC1=O)[C@H](C)C[C@@H]2OC` (stereo partly shown) [Example 62]: the concentration for half-maximal inhibition (IC50) is under 1000 nM. The same measure for `CC[C@@H]1/C=C(\C)C[C@H](C)C[C@H](OC)[C@H]2O[C@@](O)(C(=O)C(=O)N3CCCC[C@H]3C(=O)O[C@H](/C(C)=C/[C@@H]3CCC(N4CCC(O)CC4)[C@H](OC)C3)[C@H](C)[C@@H](O)CC1=O)[C@H](C)C[C@@H]2OC` (stereo partly shown) [Example 67]: under 1000 nM; for `CC[C@@H]1/C=C(\C)C[C@H](C)C[C@H](OC)[C@H]2O[C@@](O)(C(=O)C(=O)N3CCCC[C@H]3C(=O)O[C@H](/C(C)=C/[C@@H]3CCC(N4CCCCC4CO)[C@H](OC)C3)[C@H](C)[C@@H](O)CC1=O)[C@H](C)C[C@@H]2OC` (stereo partly shown) [Example 105]: under 1000 nM; for `CC[C@@H]1/C=C(\C)C[C@H](C)C[C@H](OC)[C@H]2O[C@@](O)(C(=O)C(=O)N3CCCC[C@H]3C(=O)O[C@H](/C(C)=C/[C@@H]3CCC(N4CCCC(CO)C4)[C@H](OC)C3)[C@H](C)[C@@H](O)CC1=O)[C@H](C)C[C@@H]2OC` (stereo partly shown) [Example 106]: under 1000 nM. The same measure for `CC[C@@H]1/C=C(\C)C[C@H](C)C[C@H](OC)[C@H]2O[C@@](O)(C(=O)C(=O)N3CCCC[C@H]3C(=O)O[C@H](/C(C)=C/[C@@H]3CCC(N4CCCCC4CCO)[C@H](OC)C3)[C@H](C)[C@@H](O)CC1=O)[C@H](C)C[C@@H]2OC` (stereo partly shown) [Example 107]: under 1000 nM; for `CC[C@@H]1/C=C(\C)C[C@H](C)C[C@H](OC)[C@H]2O[C@@](O)(C(=O)C(=O)N3CCCC[C@H]3C(=O)O[C@H](/C(C)=C/[C@@H]3CCC(N4CCCC(O)C4)[C@H](OC)C3)[C@H](C)[C@@H](O)CC1=O)[C@H](C)C[C@@H]2OC` (stereo partly shown) [Example 108]: under 1000 nM.
